From US20250179032A1, “HETEROCYCLIC INHIBITORS OF GLUT9 FOR TREATMENT OF DISEASE” (HORIZON THERAPEUTICS IRELAND DAC, priority 2022, published 2025)

Molecular target: T1, H. sapiens SLC2A9 variant 2 (GLUT9B) (Homo sapiens, UniProt Q9NRM0)
T1 sequence (Q9NRM0 1-511 isoform Q9NRM0-2): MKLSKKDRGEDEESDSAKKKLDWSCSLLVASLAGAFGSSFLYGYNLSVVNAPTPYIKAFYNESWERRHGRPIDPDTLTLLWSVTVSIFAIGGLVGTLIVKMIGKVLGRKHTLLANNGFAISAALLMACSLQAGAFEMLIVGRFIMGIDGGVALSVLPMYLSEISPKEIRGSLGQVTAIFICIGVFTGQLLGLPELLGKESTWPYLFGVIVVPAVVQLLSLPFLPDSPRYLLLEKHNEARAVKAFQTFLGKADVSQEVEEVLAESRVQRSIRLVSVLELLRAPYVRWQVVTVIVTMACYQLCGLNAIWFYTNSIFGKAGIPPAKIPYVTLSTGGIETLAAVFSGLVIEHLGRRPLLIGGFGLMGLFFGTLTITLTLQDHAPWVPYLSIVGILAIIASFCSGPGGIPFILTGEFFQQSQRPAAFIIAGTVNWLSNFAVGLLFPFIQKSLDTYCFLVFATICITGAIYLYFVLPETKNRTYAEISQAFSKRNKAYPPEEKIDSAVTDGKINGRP
Assay: GLUT9 functional assay: uric acid uptake in HEK293T cells, allantoin formation by MS/MS as proxy of GLUT9B inhibition
Type: cell-based
Details: 15 minute assay; HEK293T cells stably expressing GLUT9B and transiently A. oryzae uricase; uric acid 0.3 mM, 37° C.; read-out: 15 min IC50
Outline: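 Inhibition of GLUT9B-mediated urate uptake read as reduced allantoin formation, measured by MS/MS against allantoin standards in HEK293T matrix with log-logistic fitting. Stable GLUT9B HEK293T cells carrying transfected A. oryzae uricase were incubated 15 or 60 min at 37° C with uric acid at Km (0.3 mM), pH 7.4 gluconate buffer.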

| IC50 [nM] | Structure (SMILES) |
| --- | --- |
| < 500 | Fc1cc(-c2ncc(COCC(F)(F)F)nc2N2CCC(c3nn[nH]n3)CC2)cc2ccoc12 [Compound 65, 3-(4-(2H-tetrazol-5-yl)piperidin-1-yl)-2-(7-fluorobenzofuran-5-yl)-5-((2,2,2-trifluoroethoxy)methyl)pyrazine] |
| 500 to 2000 | CS(=O)(=O)NC(=O)C1CCN(c2nc(COCC(F)(F)F)cnc2-c2cc(F)c3occc3c2)CC1 [Compound 66, 1-(3-(7-fluorobenzofuran-5-yl)-6-((2,2,2-trifluoroethoxy)methyl)pyrazin-2-yl)-N-(methylsulfonyl)piperidine-4-carboxamide] |
| > 2000 | COCCOc1ccc(-c2ncc(COCC(F)(F)F)nc2N2CCC(C(=O)NS(C)(=O)=O)CC2)cc1 [Compound 67, 1-(3-(4-(2-methoxyethoxy)phenyl)-6-((2,2,2-trifluoroethoxy)methyl)pyrazin-2-yl)-N-(methylsulfonyl)piperidine-4-carboxamide] |
| > 2000 | COCCOc1ccc(-c2ncc(COCC(F)(F)F)nc2N2CCC(c3nn[nH]n3)CC2)cc1 [Compound 68, 3-(4-(2H-tetrazol-5-yl)piperidin-1-yl)-2-(4-(2-methoxyethoxy)phenyl)-5-((2,2,2-trifluoroethoxy)methyl)pyrazine] |
| < 500 | Fc1cc(-c2ncc(CCC(F)(F)F)nc2N2CCC(c3nn[nH]n3)CC2)cc2ccoc12 [Compound 69, 3-(4-(2H-tetrazol-5-yl)piperidin-1-yl)-2-(7-fluorobenzofuran-5-yl)-5-(3,3,3-trifluoropropyl)pyrazine] |
| 500 to 2000 | COCCOc1ccc(-c2ncc(CCC(F)(F)F)nc2N2CCC(C(=O)NS(C)(=O)=O)CC2)cc1 [Compound 70, 1-(3-(4-(2-methoxyethoxy)phenyl)-6-(3,3,3-trifluoropropyl)pyrazin-2-yl)-N-(methylsulfonyl)piperidine-4-carboxamide] |
| < 500 | COCCOc1ccc(-c2ncc(CCC(F)(F)F)nc2N2CCC(c3nn[nH]n3)CC2)cc1 [Compound 71, 3-(4-(2H-tetrazol-5-yl)piperidin-1-yl)-2-(4-(2-methoxyethoxy)phenyl)-5-(3,3,3-trifluoropropyl)pyrazine] |
| > 2000 | O=C(O)C1CCN(c2nc(COCC(F)(F)F)cnc2-c2cnc3c(c2)CCO3)CC1 [Compound 72, 1-(3-(2,3-dihydrofuro[2,3-b]pyridin-5-yl)-6-((2,2,2-trifluoroethoxy)methyl)pyrazin-2-yl)piperidine-4-carboxylic acid] |
| < 500 | O=C(O)C1CCN(c2nc(CCC3CC3)cnc2-c2cc(F)c3occc3c2)CC1 [Compound 73, 1-(6-(2-cyclopropylethyl)-3-(7-fluorobenzofuran-5-yl)pyrazin-2-yl)piperidine-4-carboxylic acid] |
| 500 to 2000 | COCCOc1ccc(-c2ncc(CCC3CC3)nc2N2CCC(C(=O)O)CC2)cc1 [Compound 74, 1-(6-(2-cyclopropylethyl)-3-(4-(2-methoxyethoxy)phenyl)pyrazin-2-yl)piperidine-4-carboxylic acid] |
| > 2000 | O=C(O)C1CCN(c2nc(COCC(F)(F)F)cnc2-c2ccc(OC3CC3)cc2)CC1 [Compound 75, 1-(3-(4-cyclopropoxyphenyl)-6-((2,2,2-trifluoroethoxy)methyl)pyrazin-2-yl)piperidine-4-carboxylic acid] |
| 500 to 2000 | O=C(O)C1CCN(c2nc(COCC(F)(F)F)cnc2-c2ccc(OC3CC3)c(F)c2)CC1 [Compound 76, 1-(3-(4-cyclopropoxy-3-fluorophenyl)-6-((2,2,2-trifluoroethoxy)methyl)pyrazin-2-yl)piperidine-4-carboxylic acid] |
| > 2000 | O=C(O)C1CCN(c2nc(COCC(F)(F)F)cnc2-c2ccc(OCC3CC3)cc2)CC1 [Compound 77, 1-(3-(4-(cyclopropylmethoxy)phenyl)-6-((2,2,2-trifluoroethoxy)methyl)pyrazin-2-yl)piperidine-4-carboxylic acid] |
| > 2000 | O=C(O)C1CCN(c2nc(COCC(F)(F)F)cnc2-c2ccc(OCC3CC3)c(F)c2)CC1 [Compound 78, 1-(3-(4-(cyclopropylmethoxy)-3-fluorophenyl)-6-((2,2,2-trifluoroethoxy)methyl)pyrazin-2-yl)piperidine-4-carboxylic acid] |
| > 2000 | CCCCc1cnc(-c2ccc3c(c2)CC(C)(C)O3)c(N2CCC(C(=O)O)CC2)n1 [Compound 79, 1-(6-butyl-3-(2,2-dimethyl-2,3-dihydrobenzofuran-5-yl)pyrazin-2-yl)piperidine-4-carboxylic acid] |
| 500 to 2000 | CN(C)S(=O)(=O)NC(=O)C1CCN(c2nc(COCC(F)(F)F)cnc2-c2cc(F)c3occc3c2)CC1 [Compound 80, N-(N,N-dimethylsulfamoyl)-1-(3-(7-fluorobenzofuran-5-yl)-6-((2,2,2-trifluoroethoxy)methyl)pyrazin-2-yl)piperidine-4-carboxamide] |
| 500 to 2000 | O=c1[nH]c(C2CCN(c3nc(COCC(F)(F)F)cnc3-c3cc(F)c4occc4c3)CC2)ns1 [Compound 81, 3-(1-(3-(7-fluorobenzofuran-5-yl)-6-((2,2,2-trifluoroethoxy)methyl)pyrazin-2-yl)piperidin-4-yl)-1,2,4-thiadiazol-5(4H)-one] |
| < 500 | O=c1[nH]c(C2CCN(c3nc(COCC(F)(F)F)cnc3-c3cc(F)c4occc4c3)CC2)no1 [Compound 82, 3-(1-(3-(7-fluorobenzofuran-5-yl)-6-((2,2,2-trifluoroethoxy)methyl)pyrazin-2-yl)piperidin-4-yl)-1,2,4-oxadiazol-5(4H)-one] |
| 500 to 2000 | O=S1NC(C2CCN(c3nc(COCC(F)(F)F)cnc3-c3cc(F)c4occc4c3)CC2)=NO1 (stereo not drawn) [Compound 83, 4-(1-(3-(7-fluorobenzofuran-5-yl)-6-((2,2,2-trifluoroethoxy)methyl)pyrazin-2-yl)piperidin-4-yl)-3H-1,2,3,5-oxathiadiazole 2-oxide] |
| > 2000 | CS(=O)(=O)CCc1cnc(-c2cc(F)c3occc3c2)c(N2CCC(C(=O)O)CC2)n1 [Compound 84, 1-(3-(7-fluorobenzofuran-5-yl)-6-(2-(methylsulfonyl)ethyl)pyrazin-2-yl)piperidine-4-carboxylic acid] |
| > 2000 | COCCOc1ccc(-c2ncc(CCS(C)(=O)=O)nc2N2CCC(C(=O)O)CC2)cc1 [Compound 85, 1-(3-(4-(2-methoxyethoxy)phenyl)-6-(2-(methylsulfonyl)ethyl)pyrazin-2-yl)piperidine-4-carboxylic acid] |
| 500 to 2000 | COCCOc1ccc(-c2ncc(CCC(F)(F)F)nc2N2CCC(C(=O)O)CC2)cc1 [Compound 86, 1-(3-(4-(2-methoxyethoxy)phenyl)-6-(3,3,3-trifluoropropyl)pyrazin-2-yl)piperidine-4-carboxylic acid] |
| > 2000 | O=C(O)C1CCN(c2nc(CCC(F)(F)F)cnc2-c2cnc3c(c2)CCO3)CC1 [Compound 87, 1-(3-(2,3-dihydrofuro[2,3-b]pyridin-5-yl)-6-(3,3,3-trifluoropropyl)pyrazin-2-yl)piperidine-4-carboxylic acid] |
| 500 to 2000 | O=C(O)CC1CCN(c2nc(CCC(F)(F)F)cnc2-c2cc(F)c3occc3c2)C1 (stereo not drawn) [Compound 88, 2-(1-(3-(7-fluorobenzofuran-5-yl)-6-(3,3,3-trifluoropropyl)pyrazin-2-yl)pyrrolidin-3-yl)acetic acid] |
| 500 to 2000 | O=C(O)CCC1CN(c2nc(CCC(F)(F)F)cnc2-c2cc(F)c3occc3c2)C1 [Compound 89, 3-(1-(3-(7-fluorobenzofuran-5-yl)-6-(3,3,3-trifluoropropyl)pyrazin-2-yl)azetidin-3-yl)propanoic acid] |
| 500 to 2000 | O=C(O)CC1CN(c2nc(CCC(F)(F)F)cnc2-c2cc(F)c3occc3c2)C1 [Compound 90, 2-(1-(3-(7-fluorobenzofuran-5-yl)-6-(3,3,3-trifluoropropyl)pyrazin-2-yl)azetidin-3-yl)acetic acid] |
| < 500 | O=C(O)C1(O)CCN(c2nc(CCC(F)(F)F)cnc2-c2cc(F)c3occc3c2)CC1 [Compound 91, 1-(3-(7-fluorobenzofuran-5-yl)-6-(3,3,3-trifluoropropyl)pyrazin-2-yl)-4-hydroxypiperidine-4-carboxylic acid] |
| 500 to 2000 | COC1(C(=O)O)CCN(c2nc(CCC(F)(F)F)cnc2-c2cc(F)c3occc3c2)CC1 [Compound 92, 1-(3-(7-fluorobenzofuran-5-yl)-6-(3,3,3-trifluoropropyl)pyrazin-2-yl)-4-methoxypiperidine-4-carboxylic acid] |
| 500 to 2000 | N#CC1(C(=O)O)CCN(c2nc(CCC(F)(F)F)cnc2-c2cc(F)c3occc3c2)CC1 [Compound 93, 4-cyano-1-(3-(7-fluorobenzofuran-5-yl)-6-(3,3,3-trifluoropropyl)pyrazin-2-yl)piperidine-4-carboxylic acid] |
| 500 to 2000 | O=C(O)C1C2CC1CN(c1nc(CCC(F)(F)F)cnc1-c1cc(F)c3occc3c1)C2 (stereo not drawn) [Compound 94, 3-(3-(7-fluorobenzofuran-5-yl)-6-(3,3,3-trifluoropropyl)pyrazin-2-yl)-3-azabicyclo[3.1.1]heptane-6-carboxylic acid] |
